Measured values reported in patent US9163013B2, “Use of 1H-indazole-3-carboxamide compounds as glycogen synthase kinase 3 beta inhibitors” (AZIENDE CHIMICHE RIUNITE ANGELINI FRANCESCO A.C.R.A.F. …, priority 2012, dated 2015).
Where “and” joins values, the source holds several entries; their conditions need not be identical. Identical values can stand only once. Counter-ions that a name gives are not always drawn. Like-named read-outs stand apart in the source and are kept apart here.

How the values were obtained:
[1] = target: human GSK-3β (Homo sapiens (Human), UniProt P49841); test: Activity on human GSK-3β, substrate phosphorylation measured by LANCE technology; type: biochemical
Chain of human GSK-3β (P49841 whole entry): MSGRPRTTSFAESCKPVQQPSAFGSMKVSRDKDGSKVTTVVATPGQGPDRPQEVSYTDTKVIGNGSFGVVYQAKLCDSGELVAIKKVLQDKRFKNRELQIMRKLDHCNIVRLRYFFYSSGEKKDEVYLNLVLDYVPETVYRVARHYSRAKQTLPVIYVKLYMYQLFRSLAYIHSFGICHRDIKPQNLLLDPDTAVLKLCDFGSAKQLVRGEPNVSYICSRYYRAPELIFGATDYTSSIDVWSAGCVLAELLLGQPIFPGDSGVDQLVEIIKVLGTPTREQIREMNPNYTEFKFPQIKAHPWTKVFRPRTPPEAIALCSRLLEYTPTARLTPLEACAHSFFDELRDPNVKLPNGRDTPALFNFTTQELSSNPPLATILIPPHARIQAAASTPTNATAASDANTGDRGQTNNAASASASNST
Procedure: Activity on human GSK-3β was assessed using the following methods (according to Meijer et al., Chem. Biol., 2003-10:1255-1266).
In a first screening assay, compounds were tested in duplicate at a concentration of 10 μM.
Human recombinant enzyme GSK-3β was incubated for 90 minutes at 22° C. in the presence of compounds or vehicle in a reaction buffer containing ATP plus 100 nM unphosphorylated specific substrate peptide (Ulight-[…]-amide). Substrate phosphorylation was measured by LANCE technology (PerkinElmer, Conn., USA).
The results, reported in the following Table 4, are expressed as a percent of inhibition of control specific activity obtained in the presence of the test compounds (as % inhibition at 10 μm).
In a second assay, the same compounds were assayed at five concentrations ranging from 100 μM to 10 nM with ten-fold dilutions in duplicate. Compounds 1 to 7, 9, 11 and 13 to 26 were tested using the same first assay, compounds 8, 10, 12, and 27 to 31 were tested in another assay based on the binding and displacement of AlexaFluor® 647 labeled, ATP-competitive Kinase inhibitor scaffold using LanthaScreen™ TR-FRET technology Eu Kinase assay packet according to manufacturer's instruction (Life Technologies, Italy).
The IC50 values (concentration causing a half maximal inhibition of control specific activity), reported in table 4, were determined by non-linear regression analysis of the inhibition curves generated with mean replicate values using Hill equation curve fitting.

[2] = tested on: AMPKalpha; test: Kinase selectivity panel; type: biochemical, human; details: 10 μM, duplicate
Procedure: (§1) (a) Compound 1 was tested against a panel of 60 kinases in order to assess its selectivity. The assays were chosen taking into consideration the diversity of assay families.
(§2) Human recombinant kinases were incubated in the presence of specific peptide substrates plus ATP for different times (10, 15, 30, 60 or 90 minutes) at 22° C. Phosphorylated substrate was detected by LANCE or HTRF technology (CISBIO, MA, USA).
(§3) Compound 1 was tested at 10 μM in duplicate.
(§4) The results are expressed as a percent of inhibition of control specific activity obtained in the presence of the test compound 1 and are reported in the following Table 5.
(§5) (b) Compounds 7, 12, 21 and 24 were tested against the same panel of 60 kinases under the same conditions described above for compound 1.
(§6) The results are expressed as a percent of inhibition of control specific activity obtained in the presence of the test compounds and are reported in the following Table 6.

[3] = target: DYRK1a (h) (Homo sapiens (Human), UniProt Q13627); test: Kinase selectivity panel and IC50 determination; type: biochemical; details: for inhibition at 10 µM: duplicate, read-out: % inhibition of control values, DYRK1a (h)
Procedure: as §1, §2, §3, §4
(§7) Compound 1 was also assayed to determine the IC50 values for three different kinases (PCTAIRE1, DYRK1a, and CDK2) in comparison to Gsk3β. The assay was conducted with the same method described above in test I, second assay.
as §5, §6

[4] = target: CDK2 (h) (cycA) (Homo sapiens (Human), UniProt P24941); test: Kinase selectivity panel and IC50 determination; type: biochemical; details: for inhibition at 10 µM: duplicate, read-out: % inhibition of control values, CDK2 (h) (cycA)
Procedure: as §1, §2, §3, §4, §7, §5, §6

[5] = target: PCTAIRE1 kinase (h) (Homo sapiens (Human), UniProt Q00536); test: Kinase selectivity panel and IC50 determination; type: biochemical; details: for inhibition at 10 µM: duplicate, read-out: % inhibition of control values, PCTAIRE1 kinase (h)
Chain of PCTAIRE1 kinase (h) (Q00536 whole entry): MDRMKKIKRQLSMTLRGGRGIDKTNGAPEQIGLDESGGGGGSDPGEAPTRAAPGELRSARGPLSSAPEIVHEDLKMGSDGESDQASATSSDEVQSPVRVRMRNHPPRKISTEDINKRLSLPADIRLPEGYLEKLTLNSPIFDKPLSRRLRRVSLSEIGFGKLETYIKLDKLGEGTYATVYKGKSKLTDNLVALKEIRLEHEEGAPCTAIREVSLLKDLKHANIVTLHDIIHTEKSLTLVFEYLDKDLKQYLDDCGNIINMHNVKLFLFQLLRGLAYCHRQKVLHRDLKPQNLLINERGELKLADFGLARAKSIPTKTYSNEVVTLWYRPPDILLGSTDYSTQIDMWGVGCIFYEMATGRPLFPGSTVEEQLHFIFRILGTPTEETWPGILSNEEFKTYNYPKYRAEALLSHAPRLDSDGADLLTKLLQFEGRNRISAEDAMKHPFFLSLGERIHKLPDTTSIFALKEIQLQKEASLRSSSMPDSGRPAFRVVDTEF
Procedure: as §1, §2, §3, §4, §7, §5, §6

[6] = target: MEK1/MAP2K1 (h) (Homo sapiens (Human), UniProt Q02750); test: Kinase selectivity panel; type: biochemical; details: duplicate, read-out: % inhibition of control values, MEK1/MAP2K1 (h)
Chain of MEK1/MAP2K1 (h) (Q02750 whole entry): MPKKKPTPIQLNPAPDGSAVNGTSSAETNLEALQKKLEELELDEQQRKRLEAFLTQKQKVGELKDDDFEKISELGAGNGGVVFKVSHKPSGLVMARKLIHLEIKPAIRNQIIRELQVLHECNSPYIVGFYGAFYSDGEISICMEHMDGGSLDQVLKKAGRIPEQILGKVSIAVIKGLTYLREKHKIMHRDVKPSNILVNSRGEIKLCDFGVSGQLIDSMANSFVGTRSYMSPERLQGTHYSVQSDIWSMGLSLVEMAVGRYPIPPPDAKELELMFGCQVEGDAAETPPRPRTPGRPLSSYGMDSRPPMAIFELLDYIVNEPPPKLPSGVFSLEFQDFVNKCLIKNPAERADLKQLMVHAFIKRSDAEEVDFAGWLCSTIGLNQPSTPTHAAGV
In short: (§8)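 Compounds at 10 μM (duplicate wells) are profiled against human recombinant kinases that phosphorylate peptide substrates with ATP over 10–90 min at 22° C. LANCE or HTRF read-out quantifies the phosphorylated product, and values represent % inhibition versus control.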

[7] = target: NEK1 (h) (Homo sapiens (Human), UniProt Q96PY6); test: Kinase selectivity panel; type: biochemical; details: duplicate, read-out: % inhibition of control values, NEK1 (h)
Chain of NEK1 (h) (Q96PY6 whole entry): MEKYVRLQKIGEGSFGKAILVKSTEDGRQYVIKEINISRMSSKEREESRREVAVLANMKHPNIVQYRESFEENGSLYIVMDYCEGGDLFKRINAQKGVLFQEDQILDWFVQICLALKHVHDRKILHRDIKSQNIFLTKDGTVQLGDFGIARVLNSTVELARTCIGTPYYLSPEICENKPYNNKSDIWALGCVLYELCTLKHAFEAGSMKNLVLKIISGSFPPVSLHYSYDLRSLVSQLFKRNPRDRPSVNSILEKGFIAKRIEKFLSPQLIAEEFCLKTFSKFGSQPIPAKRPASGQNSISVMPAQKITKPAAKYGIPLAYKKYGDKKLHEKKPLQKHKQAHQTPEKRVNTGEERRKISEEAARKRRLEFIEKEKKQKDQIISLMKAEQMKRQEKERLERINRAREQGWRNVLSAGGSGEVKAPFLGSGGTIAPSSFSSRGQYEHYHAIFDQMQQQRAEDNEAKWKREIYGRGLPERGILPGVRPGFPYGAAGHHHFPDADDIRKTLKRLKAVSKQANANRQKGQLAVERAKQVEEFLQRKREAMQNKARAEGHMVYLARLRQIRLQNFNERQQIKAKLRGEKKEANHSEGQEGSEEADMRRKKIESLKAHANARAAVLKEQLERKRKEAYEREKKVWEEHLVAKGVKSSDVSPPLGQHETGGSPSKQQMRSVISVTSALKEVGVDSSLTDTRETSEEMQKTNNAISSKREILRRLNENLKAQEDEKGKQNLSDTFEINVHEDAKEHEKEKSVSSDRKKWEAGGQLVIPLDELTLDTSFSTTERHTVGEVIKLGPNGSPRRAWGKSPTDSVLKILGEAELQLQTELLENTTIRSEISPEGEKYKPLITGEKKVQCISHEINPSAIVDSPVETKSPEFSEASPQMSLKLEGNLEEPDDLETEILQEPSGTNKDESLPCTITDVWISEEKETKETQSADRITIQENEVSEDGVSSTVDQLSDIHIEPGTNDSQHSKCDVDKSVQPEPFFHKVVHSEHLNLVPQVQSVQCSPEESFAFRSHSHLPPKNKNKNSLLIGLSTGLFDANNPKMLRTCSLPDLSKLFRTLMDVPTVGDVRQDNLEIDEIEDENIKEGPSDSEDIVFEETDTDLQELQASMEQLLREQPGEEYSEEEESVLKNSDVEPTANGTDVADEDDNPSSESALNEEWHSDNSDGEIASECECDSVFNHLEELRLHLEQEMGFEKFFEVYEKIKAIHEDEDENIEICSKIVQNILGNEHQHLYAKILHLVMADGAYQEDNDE
In short: as §8

[8] = target: p38alpha kinase (h) (Homo sapiens (Human), UniProt Q16539); test: Kinase selectivity panel; type: biochemical; details: duplicate, read-out: % inhibition of control values, p38alpha kinase (h)
Chain of p38alpha kinase (h) (Q16539 whole entry): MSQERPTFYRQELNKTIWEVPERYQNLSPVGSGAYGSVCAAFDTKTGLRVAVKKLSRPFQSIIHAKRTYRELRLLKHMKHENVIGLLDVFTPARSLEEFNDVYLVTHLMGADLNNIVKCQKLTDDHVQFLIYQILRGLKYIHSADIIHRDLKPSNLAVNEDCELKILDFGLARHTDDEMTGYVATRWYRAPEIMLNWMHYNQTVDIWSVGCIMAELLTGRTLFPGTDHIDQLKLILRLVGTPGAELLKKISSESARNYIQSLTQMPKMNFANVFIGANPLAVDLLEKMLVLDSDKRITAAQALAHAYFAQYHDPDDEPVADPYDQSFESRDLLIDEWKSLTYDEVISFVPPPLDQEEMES
In short: as §8

[9] = target: mTOR kinase (h) (FRAP1) (Homo sapiens (Human), UniProt P42345); test: Kinase selectivity panel; type: biochemical; details: duplicate, read-out: % inhibition of control values, mTOR kinase (h) (FRAP1)
In short: as §8

[10] = target: p38gamma kinase (h) (Homo sapiens (Human), UniProt P53778); test: Kinase selectivity panel; type: biochemical; details: duplicate, read-out: % inhibition of control values, p38gamma kinase (h)
Chain of p38gamma kinase (h) (P53778 whole entry): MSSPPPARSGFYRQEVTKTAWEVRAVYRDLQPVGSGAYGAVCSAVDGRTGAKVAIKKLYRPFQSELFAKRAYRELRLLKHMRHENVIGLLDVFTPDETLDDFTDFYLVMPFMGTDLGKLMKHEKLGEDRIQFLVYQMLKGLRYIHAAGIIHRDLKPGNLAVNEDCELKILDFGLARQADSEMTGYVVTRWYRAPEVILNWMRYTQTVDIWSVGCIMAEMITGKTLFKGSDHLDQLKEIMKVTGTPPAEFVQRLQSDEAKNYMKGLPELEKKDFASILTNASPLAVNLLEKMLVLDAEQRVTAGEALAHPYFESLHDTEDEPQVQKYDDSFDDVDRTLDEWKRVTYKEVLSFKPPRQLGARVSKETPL
In short: as §8

[11] = target: MSK1 (h) (Homo sapiens (Human), UniProt O75582); test: Kinase selectivity panel; type: biochemical; details: duplicate, read-out: % inhibition of control values, MSK1 (h)
Chain of MSK1 (h) (O75582 whole entry): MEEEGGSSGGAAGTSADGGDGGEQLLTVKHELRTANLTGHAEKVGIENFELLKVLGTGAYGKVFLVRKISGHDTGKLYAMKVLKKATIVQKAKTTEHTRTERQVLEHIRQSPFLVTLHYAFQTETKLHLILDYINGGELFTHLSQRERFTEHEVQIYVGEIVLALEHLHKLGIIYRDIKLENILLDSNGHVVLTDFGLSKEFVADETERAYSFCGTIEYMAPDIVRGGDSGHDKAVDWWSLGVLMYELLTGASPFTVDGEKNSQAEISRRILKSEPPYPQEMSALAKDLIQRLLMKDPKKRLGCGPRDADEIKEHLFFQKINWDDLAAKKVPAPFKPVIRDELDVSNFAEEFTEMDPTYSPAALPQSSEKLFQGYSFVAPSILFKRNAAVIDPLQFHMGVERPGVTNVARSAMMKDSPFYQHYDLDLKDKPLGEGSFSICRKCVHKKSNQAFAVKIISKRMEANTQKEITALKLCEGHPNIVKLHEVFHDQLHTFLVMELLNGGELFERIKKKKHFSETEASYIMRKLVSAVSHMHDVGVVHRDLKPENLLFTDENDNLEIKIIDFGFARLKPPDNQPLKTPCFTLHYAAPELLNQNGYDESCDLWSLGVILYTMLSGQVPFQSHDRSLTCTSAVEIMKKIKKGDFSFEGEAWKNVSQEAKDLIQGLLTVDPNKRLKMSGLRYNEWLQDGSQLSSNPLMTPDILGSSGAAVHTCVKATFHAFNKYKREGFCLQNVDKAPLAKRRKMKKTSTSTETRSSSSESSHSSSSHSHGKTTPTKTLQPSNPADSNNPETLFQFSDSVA
In short: as §8

[12] = target: smMLCK (h) (MYLK) (Homo sapiens (Human), UniProt Q15746); test: Kinase selectivity panel; type: biochemical; details: duplicate, read-out: % inhibition of control values, smMLCK (h) (MYLK)
In short: as §8

[13] = 10 μM, duplicate, human recombinant GSK-3β, 90 minutes at 22° C.
[14] = LANCE phosphorylation assay, five concentrations 100 μM to 10 nM, duplicate, read-out: IC50
[15] = Table 5A, method of test I, second assay

% Inhibition [10 μM] [1, 13] | inhibition at 10 µM [1, 13] | IC50 [1, 14] | IC50 ([1]; Table 5A, method of test I, second assay, read-out: IC50 [μM] Gsk3β) | % inhibition of control values, AMPKalpha [2] | inhibition at 10 µM [3] | IC50 [3, 15] | inhibition at 10 µM [4] | IC50 [4, 15] | inhibition at 10 µM [5] | IC50 [5, 15] | inhibition at 10 µM [6] | inhibition at 10 µM [7] | inhibition at 10 µM [8] | inhibition at 10 µM [9] | inhibition at 10 µM [10] | inhibition at 10 µM [11] | inhibition at 10 µM [12] | SMILES
94% | > 90% | < 0.6 µM and 0.35 µM | 0.35 µM | 13% | 63% | 2.9 µM | 27% | 36 µM | 87% | 1.5 µM | 25% | 1% | 0% | 0% | 2% | 8% | 0% | COc1ccc2[nH]nc(C(=O)NCC3CCN(CCc4ccc(O)cc4)CC3)c2c1 [Compound 1, N-({1-[2-(4-hydroxyphenyl)ethyl]-piperidin-4-yl}methyl)-5-methoxy-1H-indazole-3-carboxamide]
– | – | 0.01 µM | – | 70% | 99% | – | 100% | – | 94% | – | – | – | 1% | – | – | – | – | COc1ccncc1-c1ccc2[nH]nc(C(=O)NCC3CCN(Cc4ccc(C(=O)O)o4)CC3)c2c1 [Compound 21, 5-({4-[({[5-(4-Methoxypyridin-3-yl)-1H-indazol-3-yl]carbonyl}amino)methyl]piperidin-1-yl}methyl)furan-2-carboxylic acid formate]
– | – | 0.4 µM | – | 21% | 59% | – | 36% | – | 1% | – | – | – | 0% | – | – | – | – | COc1ccc2[nH]nc(C(=O)NCC3CCN(Cc4ccc(C(=O)O)o4)CC3)c2c1 [Compound 24, 5-{[4-({[(5-Methoxy-1H-indazol-3-yl)carbonyl]amino}methyl)piperidin-1-yl]methyl}furan-2-carboxylic acid]
